Several values for one entry are separate records, joined by “and”; a condition that tells them apart may be missing. Equal values may be shown once. Read-outs that look alike come from different tables or passages of the source.
Tests used:
Aspergillus flavus [1] = assay: Fungicidal bioassay on nongerminated and germinating conidia of A. flavus; assay type: cell-based; details: for activity at 2 µM / activity at 3 µM / activity at 4 µM / activity at 5 µM / activity at 7.5 µM / activity at 10 µM / activity at 1 µM / activity at 2.5 µM: read-out: Percent of Mean Control
Procedure: (§1) 1. Filamentous fungi. Filamentous fungi used in bioassays included Aspergillus flavus, A. fumigatus, A. niger, A. parasiticus and Fusarium oxysporum. The fungicidal properties of CAY-1 for the nongerminated and germinating conidia of these fungi were determined separately as described by De Lucca et al. [Med. Mycol., 36:291-298 (1998)] and De Lucca et al. [Antimicrob. Agents Chemother. 43:371-373 (1999)]. […] Two separate experiments were conducted in each medium (n=8 per medium).
(§2) A suspension of the aforementioned fungi were prepared separately in the appropriate medium. Conidia (10^4 conidia/ml) were used immediately for the nongerminated conidial assays while conidia (10^5 conidia/ml) were incubated for 7.5 hours at 30° C. to obtain germinating conidia. Serial dilutions of CAY-1 were prepared in the appropriate medium (totaling 225 μl) to which was added 25 μl of the conidial suspensions. The control consisted of 225 μl of medium and 25 μl of the conidial suspension. After mixing, the samples were incubated for 30 min (30° C.). Samples were then spread on potato dextrose agar plates which were incubated at 30° C. for 24 hours. Colonies were then enumerated.
(§3) Statistical analyses. ANOVA analyses on ranks for nonparametric data were performed for the bioassays described in this example.

Aspergillus flavus [2] = assay: Time course study against germinating conidia of A. flavus; assay type: cell-based; details: 1% PDB
Procedure: as §1, §2
4. Time course study. The effect of time and concentration on the activity of CAY-1 was determined against the germinating conidia of A. flavus in 1% (w/v) PBD. Bioassays were performed twice as described above (n=8).
as §3

CC1CCC2(OC1)OC1CC3C4CCC5CC(OC6OC(CO)C(OC7OC(CO)C(O)C(OC8OC(CO)C(O)C(OC9OC(CO)C(O)C(O)C9O)C8O)C7OC7OC(CO)C(O)C(O)C7O)C(O)C6O)C(O)CC5(C)C4CCC3(C)C1C2C (stereo not shown) [CAY-1]
activity at 2 µM (Aspergillus flavus [1]; Aspergillus flavus, 0.5 h, germinating, 1% PDB, 2.0 μM): 90.1% | activity at 3 µM (Aspergillus flavus [1]; Aspergillus flavus, 0.5 h, germinating, 1% PDB, 3.0 μM): 74.4% | activity at 4 µM (Aspergillus flavus [1]; Aspergillus flavus, 0.5 h, germinating, 1% PDB, 4.0 μM): 54.2% | activity at 5 µM (Aspergillus flavus [1]; Aspergillus flavus, 0.5 h, germinating, 1% PDB, 5.0 μM): 34.9% | activity at 7.5 µM (Aspergillus flavus [1]; Aspergillus flavus, 0.5 h, germinating, 1% PDB, 7.5 μM): 11% | activity at 10 µM (Aspergillus flavus [1]; Aspergillus flavus, 0.5 h, germinating, 1% PDB, 10.0 μM): 8.4% | activity at 1 µM (Aspergillus flavus [1]; Aspergillus flavus, 0.5 h, germinating, RPMI-1640, 1.0 μM): 132% | activity at 2.5 µM (Aspergillus flavus [1]; Aspergillus flavus, 0.5 h, germinating, RPMI-1640, 2.5 μM): 145% | activity at 5 µM (Aspergillus flavus [1]; Aspergillus flavus, 0.5 h, germinating, RPMI-1640, 5.0 μM): 62.9% | activity at 7.5 µM (Aspergillus flavus [1]; Aspergillus flavus, 0.5 h, germinating, RPMI-1640, 7.5 μM): 14% | activity at 10 µM (Aspergillus flavus [1]; Aspergillus flavus, 0.5 h, germinating, RPMI-1640, 10.0 μM): 9% | activity at 2 µM (Aspergillus flavus [1]; Aspergillus flavus, 0.5 h, nongerminated, 1% PDB, 2.0 μM): 102% | activity at 3 µM (Aspergillus flavus [1]; Aspergillus flavus, 0.5 h, nongerminated, 1% PDB, 3.0 μM): 102% | activity at 4 µM (Aspergillus flavus [1]; Aspergillus flavus, 0.5 h, nongerminated, 1% PDB, 4.0 μM): 103% | activity at 5 µM (Aspergillus flavus [1]; Aspergillus flavus, 0.5 h, nongerminated, 1% PDB, 5.0 μM): 104% | activity at 7.5 µM (Aspergillus flavus [1]; Aspergillus flavus, 0.5 h, nongerminated, 1% PDB, 7.5 μM): 106% | activity at 10 µM (Aspergillus flavus [1]; Aspergillus flavus, 0.5 h, nongerminated, 1% PDB, 10.0 μM): 108% | activity at 1 µM (Aspergillus flavus [1]; Aspergillus flavus, 0.5 h, nongerminated, RPMI-1640, 1.0 μM): 88.6% | activity at 2.5 µM (Aspergillus flavus [1]; Aspergillus flavus, 0.5 h, nongerminated, RPMI-1640, 2.5 μM): 92.2% | activity at 5 µM (Aspergillus flavus [1]; Aspergillus flavus, 0.5 h, nongerminated, RPMI-1640, 5.0 μM): 91.7% | activity at 7.5 µM (Aspergillus flavus [1]; Aspergillus flavus, 0.5 h, nongerminated, RPMI-1640, 7.5 μM): 90.7% | activity at 10 µM (Aspergillus flavus [1]; Aspergillus flavus, 0.5 h, nongerminated, RPMI-1640, 10.0 μM): 99.2% | LD95 (concentration lethal to 95% of conidia) (Aspergillus flavus [1]; Aspergillus flavus, 0.5 h, read-out: LD95): 12.5 µM and 15.5 µg/mL | minimal effective concentration (Aspergillus flavus [1]; Aspergillus flavus, 0.5 h, read-out: concentration lethal to germinating conidia): 7.5 µM and 9.3 µg/mL | concentration lethal to germinating conidia (Aspergillus flavus [1]; germinating conidia, RPMI-1640, p=0.0187): 7.5 μM and 9.3 μg/ml | Mean No. of Colonies (Aspergillus flavus [1]; germinating, 1% PDB, 2.0 μM): 139.8 | Mean No. of Colonies (Aspergillus flavus [1]; germinating, 1% PDB, 3.0 μM): 115.4 | Mean No. of Colonies (Aspergillus flavus [1]; germinating, 1% PDB, 4.0 μM): 84.1 | Mean No. of Colonies (Aspergillus flavus [1]; germinating, 1% PDB, 5.0 μM): 54.2 | Mean No. of Colonies (Aspergillus flavus [1]; germinating, 1% PDB, 7.5 μM): 17.1 | Mean No. of Colonies (Aspergillus flavus [1]; germinating, 1% PDB, 10.0 μM): 13.1 | Mean No. of Colonies (Aspergillus flavus [1]; germinating, RPMI-1640, 1.0 μM): 52.6 | Mean No. of Colonies (Aspergillus flavus [1]; germinating, RPMI-1640, 2.5 μM): 57.8 | Mean No. of Colonies (Aspergillus flavus [1]; germinating, RPMI-1640, 5.0 μM): 25.1 | Mean No. of Colonies (Aspergillus flavus [1]; germinating, RPMI-1640, 7.5 μM): 5.6 | Mean No. of Colonies (Aspergillus flavus [1]; germinating, RPMI-1640, 10.0 μM): 3.6 | viability of nongerminated conidia (Aspergillus flavus [1]; nongerminated conidia, either test medium): not affected | Mean No. of Colonies (Aspergillus flavus [1]; nongerminated, 1% PDB, 2.0 μM): 54.4 | Mean No. of Colonies (Aspergillus flavus [1]; nongerminated, 1% PDB, 3.0 μM): 54.8 | Mean No. of Colonies (Aspergillus flavus [1]; nongerminated, 1% PDB, 4.0 μM): 55.2 | Mean No. of Colonies (Aspergillus flavus [1]; nongerminated, 1% PDB, 5.0 μM): 55.7 | Mean No. of Colonies (Aspergillus flavus [1]; nongerminated, 1% PDB, 7.5 μM): 56.9 | Mean No. of Colonies (Aspergillus flavus [1]; nongerminated, 1% PDB, 10.0 μM): 58.0 | Mean No. of Colonies (Aspergillus flavus [1]; nongerminated, RPMI-1640, 1.0 μM): 53.6 | Mean No. of Colonies (Aspergillus flavus [1]; nongerminated, RPMI-1640, 2.5 μM): 55.8 | Mean No. of Colonies (Aspergillus flavus [1]; nongerminated, RPMI-1640, 5.0 μM): 55.5 | Mean No. of Colonies (Aspergillus flavus [1]; nongerminated, RPMI-1640, 7.5 μM): 54.9 | Mean No. of Colonies (Aspergillus flavus [1]; nongerminated, RPMI-1640, 10.0 μM): 60.0 | Mean No. of Colonies (Aspergillus flavus [2]; 2.5 min, 2.0 μM): 184.4 | Mean No. of Colonies (Aspergillus flavus [2]; 2.5 min, 3.0 μM): 174.3 | Mean No. of Colonies (Aspergillus flavus [2]; 2.5 min, 4.0 μM): 170.5 | Mean No. of Colonies (Aspergillus flavus [2]; 2.5 min, 5.0 μM): 170.0 | Mean No. of Colonies (Aspergillus flavus [2]; 2.5 min, 7.5 μM): 160.8 | Mean No. of Colonies (Aspergillus flavus [2]; 2.5 min, 10.0 μM): 154.8 | Mean No. of Colonies (Aspergillus flavus [2]; 5.0 min, 2.0 μM): 182.3 | Mean No. of Colonies (Aspergillus flavus [2]; 5.0 min, 3.0 μM): 190.1 | Mean No. of Colonies (Aspergillus flavus [2]; 5.0 min, 4.0 μM): 171.3 | Mean No. of Colonies (Aspergillus flavus [2]; 5.0 min, 5.0 μM): 172.4 | Mean No. of Colonies (Aspergillus flavus [2]; 5.0 min, 7.5 μM): 163.3 | Mean No. of Colonies (Aspergillus flavus [2]; 5.0 min, 10.0 μM): 89.8 | Mean No. of Colonies (Aspergillus flavus [2]; 10.0 min, 2.0 μM): 135.5
